From patent US20260015360A1 (MOMA Therapeutics, Inc., priority 2023, published 2026)
Read-outs that look alike come from different tables or passages of the source.

Legend:
[1] = target: T1, biotinylated Avi-POLΘ[2-894] (Homo sapiens, UniProt O75417); assay: ATPase assay (ADP-Glo): POLΘ-mediated ATP hydrolysis; conditions: read-out: Biochemical ATPase ADPGlo IC50
T1 construct: 1 nM biotinylated Avi-POLΘ[2-894]

DLD1 BRCA2 (−/−) cells = assay: DLD1 viability assay (CellTiter-Glo, 7 days), DLD1 BRCA2 (−/−); format: cell-based; conditions: read-out: Viability IC50 (μM) DLD1 BRCA2 null
DLD1 WT cells = assay: DLD1 viability assay (CellTiter-Glo, 7 days), DLD1 WT; format: cell-based

T1 sequence (O75417 2-894 limits assumed): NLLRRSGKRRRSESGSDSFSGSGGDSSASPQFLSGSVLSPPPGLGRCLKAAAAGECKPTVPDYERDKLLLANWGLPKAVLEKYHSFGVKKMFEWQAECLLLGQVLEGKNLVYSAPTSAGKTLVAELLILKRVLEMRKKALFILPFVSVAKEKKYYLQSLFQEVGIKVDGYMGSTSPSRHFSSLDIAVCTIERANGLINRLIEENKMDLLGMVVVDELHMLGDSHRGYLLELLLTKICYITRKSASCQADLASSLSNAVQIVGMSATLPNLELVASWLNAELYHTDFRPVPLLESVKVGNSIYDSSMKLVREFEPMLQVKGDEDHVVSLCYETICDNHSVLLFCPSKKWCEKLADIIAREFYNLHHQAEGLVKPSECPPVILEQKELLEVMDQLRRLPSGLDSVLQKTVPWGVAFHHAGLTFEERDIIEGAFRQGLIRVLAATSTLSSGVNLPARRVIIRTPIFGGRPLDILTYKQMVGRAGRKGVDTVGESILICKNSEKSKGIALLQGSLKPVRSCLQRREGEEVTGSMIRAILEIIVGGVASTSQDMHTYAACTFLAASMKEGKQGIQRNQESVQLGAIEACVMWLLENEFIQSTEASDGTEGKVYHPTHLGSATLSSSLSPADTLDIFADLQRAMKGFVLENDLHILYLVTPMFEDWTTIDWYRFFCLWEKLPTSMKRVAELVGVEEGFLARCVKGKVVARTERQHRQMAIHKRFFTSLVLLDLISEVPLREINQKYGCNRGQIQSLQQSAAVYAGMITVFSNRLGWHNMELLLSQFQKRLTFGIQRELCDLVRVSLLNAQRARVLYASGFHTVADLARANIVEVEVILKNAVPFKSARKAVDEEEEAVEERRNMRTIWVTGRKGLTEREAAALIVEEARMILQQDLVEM

SMILES | IC50 [1] [nM] | IC50 (DLD1 BRCA2 (−/−) cells; Homo sapiens, DLD-1, 168 h) [µM] | IC50 (DLD1 WT cells; Homo sapiens, DLD-1, 168 h) [µM] | IC50 (DLD1 BRCA2 (−/−) cells) [µM] | IC50 (DLD1 WT cells) [µM]
COc1cnc(Cl)cc1-c1cc(C)ncc1C(=O)Nc1nc2ncc(C34CCC(C#N)(CC3)CC4)nc2s1 (single isomer, unassigned) [Example 359, 2′-chloro-N-(6-(4-cyanobicyclo[2.2.2]octan-1-yl)thiazolo[4,5-b]pyrazin-2-yl)-5′-methoxy-6-methyl-[4,4′-bipyridine]-3-carboxamide] | 1 to 15 | 0.001 to 0.1 | > 10 |  | 
COc1cnc(Cl)cc1-c1cc(C)ncc1C(=O)Nc1nc2ncc(C34CC(C#N)(C3)C4)nc2s1 (single isomer, unassigned) [Example 360, 2′-chloro-N-(6-(3-cyanobicyclo[1.1.1]pentan-1-yl)thiazolo[4,5-b]pyrazin-2-yl)-5′-methoxy-6-methyl-[4,4′-bipyridine]-3-carboxamide] | 1 to 15 | 0.001 to 0.1 | > 10 |  | 
COc1cnc(Cl)cc1-c1cc(C)ncc1C(=O)Nc1nc2ncc(C3CC4CC3CC4C#N)nc2s1 (single isomer, unassigned) [Example 361, 2′-chloro-N-(6-(5-cyanobicyclo[2.2.1]heptan-2-yl)thiazolo[4,5-b]pyrazin-2-yl)-5′-methoxy-6-methyl-[4,4′-bipyridine]-3-carboxamide] | 1 to 15 | 0.001 to 0.1 | > 10 |  | 
COc1cnc(Cl)cc1-c1cc(C)ncc1C(=O)Nc1nc2ncc([C@@H]3CC4CC3C[C@H]4C#N)nc2s1 (single isomer, unassigned) [Example 361A, 2′-chloro-N-(6-((2R or S,5R or S)-5-cyanobicyclo[2.2.1]heptan-2-yl)thiazolo[4,5-b]pyrazin-2-yl)-5′-methoxy-6-methyl-[4,4′-bipyridine]-3-carboxamide] | 1 to 15 | 0.001 to 0.1 | > 10 |  | 
COc1cnc(Cl)cc1-c1cc(C)ncc1C(=O)Nc1nc2ncc([C@H]3CC4CC3C[C@@H]4C#N)nc2s1 (single isomer, unassigned) [Example 361B, 2′-chloro-N-(6-((2S or R,5S or R)-5-cyanobicyclo[2.2.1]heptan-2-yl)thiazolo[4,5-b]pyrazin-2-yl)-5′-methoxy-6-methyl-[4,4′-bipyridine]-3-carboxamide] | 1 to 15 | 0.001 to 0.1 | > 10 |  | 
COc1cnc(Cl)cc1-c1cc(C)ncc1C(=O)Nc1nc2ncc([C@@H]3CC4CC3C[C@@H]4C#N)nc2s1 (single isomer, unassigned) [Example 361C, 2′-chloro-N-(6-((2R or S,5S or R)-5-cyanobicyclo[2.2.1]heptan-2-yl)thiazolo[4,5-b]pyrazin-2-yl)-5′-methoxy-6-methyl-[4,4′-bipyridine]-3-carboxamide] | 1 to 15 | 0.001 to 0.1 | > 10 |  | 
COc1cnc(Cl)cc1-c1cc(C)ncc1C(=O)Nc1nc2ncc([C@H]3CC4CC3C[C@H]4C#N)nc2s1 (single isomer, unassigned) [Example 361D, 2′-chloro-N-(6-((2S or R,5R or S)-5-cyanobicyclo[2.2.1]heptan-2-yl)thiazolo[4,5-b]pyrazin-2-yl)-5′-methoxy-6-methyl-[4,4′-bipyridine]-3-carboxamide] | 1 to 15 | 0.001 to 0.1 | > 10 |  | 
COc1cnc(Cl)cc1-c1cc(C)ncc1C(=O)Nc1nn2cc(C(=O)N[C@H]3CC[C@H](O)C3)nc2s1 [Example 21] | 1 to 15 |  |  | 0.5 to 2 | > 10
COc1cnc(Cl)cc1-c1cc(C)ncc1C(=O)Nc1nn2cc(C(=O)N[C@@H]3CCCC[C@@H]3O)nc2s1 [Example 22] | 1 to 15 |  |  | > 2 | > 10
COc1ccccc1-c1cc(C)ncc1C(=O)Nc1nc2ncc(-c3ccnc(C)c3)cc2s1 [Example 87] | 1 to 15 | 0.25 to 0.5 | > 10 |  | 
COc1ccccc1-c1cc(C)ncc1C(=O)Nc1nc2ccc(-c3ccccn3)cc2s1 [Example 121, 4-(2-methoxyphenyl)-6-methyl-N-(6-(pyridin-2-yl)benzo[d]thiazol-2-yl)nicotinamide] | 50 to 150 | 0.5 to 2 | 0.001 to 2.5 |  | 
COc1cnc(Cl)cc1-c1cc(C)ncc1C(=O)Nc1nc2ncc([C@H]3CC[C@H](C#N)CC3)nc2s1 [Example 454, 2′-chloro-N-(6-((1r,4r)-4-cyanocyclohexyl)thiazolo[4,5-b]pyrazin-2-yl)-5′-methoxy-6-methyl-[4,4′-bipyridine]-3-carboxamide] | 1 to 15 | 0.001 to 0.1 | > 10 |  | 
COc1cnc(Cl)cc1-c1cc(C)ncc1C(=O)Nc1nc2ncc(N3CCC(OC(F)F)CC3)nc2s1 [Example 502, 2′-chloro-N-(6-(4-(difluoromethoxy)piperidin-1-yl)thiazolo[4,5-b]pyrazin-2-yl)-5′-methoxy-6-methyl-[4,4′-bipyridine]-3-carboxamide] | 1 to 15 | 0.001 to 0.1 | > 10 |  | 
COc1cnc(Cl)cc1-c1cc(C)ncc1C(=O)Nc1nc2ncc(N3CCC(O)(C(F)F)CC3)nc2s1 [Example 504, 2′-chloro-N-(6-(4-(difluoromethyl)-4-hydroxypiperidin-1-yl)thiazolo[4,5-b]pyrazin-2-yl)-5′-methoxy-6-methyl-[4,4′-bipyridine]-3-carboxamide] | 1 to 15 | 0.001 to 0.1 | > 10 |  | 
COc1nc2c(cc1-c1cc(C)ncc1C(=O)Nc1nc3ncc(-c4ccncc4)nc3s1)OCCN2C [Example 507, 4-(6-methoxy-4-methyl-3,4-dihydro-2H-pyrido[3,2-b][1,4]oxazin-7-yl)-6-methyl-N-(6-(pyridin-4-yl)thiazolo[4,5-b]pyrazin-2-yl)nicotinamide] | 1 to 15 | 0.1 to 0.25 | > 10 |  | 
COc1cnc(Cl)cc1-c1cc(C)ncc1C(=O)Nc1nc2ncc(N3CCC(C)(O)CC3)nc2s1 [Example 509, 2′-chloro-N-(6-(4-hydroxy-4-methylpiperidin-1-yl)thiazolo[4,5-b]pyrazin-2-yl)-5′-methoxy-6-methyl-[4,4′-bipyridine]-3-carboxamide] | 1 to 15 | 0.001 to 0.1 | > 10 |  | 
Cc1cc(-c2nn(C)c3ccncc23)c(C(=O)Nc2nc3ncc(-c4ccncc4)nc3s2)cn1 [Example 517, 6-methyl-4-(1-methyl-1H-pyrazolo[4,3-c]pyridin-3-yl)-N-(6-(pyridin-4-yl)thiazolo[4,5-b]pyrazin-2-yl)nicotinamide] | > 900 |  |  |  | 

Now from value to compound, other results behind:

IC50 [1] [nM] | IC50 (DLD1 BRCA2 (−/−) cells; Homo sapiens, DLD-1, 168 h) [µM] | IC50 (DLD1 WT cells; Homo sapiens, DLD-1, 168 h) [µM] | SMILES | IC50 (DLD1 BRCA2 (−/−) cells) [µM] | IC50 (DLD1 WT cells) [µM]
1 to 15 | > 2 | > 10 | COc1cnc(Cl)cc1-c1cc(C)ncc1C(=O)Nc1nn2cc(C(=O)N[C@H]3CCCC[C@@H]3O)nc2s1 (racemic) [Example 281] |  | 
1 to 15 | 0.25 to 0.5 | > 10 | COc1cnc(Cl)cc1-c1cc(C)ncc1C(=O)Nc1nn2cc(C(=O)NC3CCC3)nc2s1 (racemic) [Example 288] |  | 
1 to 15 | 0.1 to 0.25 | > 10 | COc1cnc(Cl)cc1-c1cc(C)ncc1C(=O)Nc1nc2ncc(C3CCOC3)nc2s1 (racemic) [Example 510, (Racemic)-2′-chloro-5′-methoxy-6-methyl-N-(6-(tetrahydrofuran-3-yl)thiazolo[4,5-b]pyrazin-2-yl)-[4,4′-bipyridine]-3-carboxamide] |  | 
1 to 15 | 0.001 to 0.1 | > 10 | COc1cnc(Cl)cc1-c1cc(C)ncc1C(=O)Nc1nc2ncc([C@@H]3CC[C@@H](CO)C3)nc2s1 (single isomer, unassigned) [Example 498, 2′-chloro-N-(6-((1R or S,3R and S)-3-(hydroxymethyl)cyclopentyl)thiazolo[4,5-b]pyrazin-2-yl)-5′-methoxy-6-methyl-[4,4′-bipyridine]-3-carboxamide] |  | 
1 to 15 | 0.1 to 0.25 | > 10 | COc1cnc(Cl)cc1-c1cc(C)ncc1C(=O)Nc1nc2ncc(C3CCOC3)cc2s1 (single isomer, unassigned) [Example 515, (R or S)-2′-chloro-5′-methoxy-6-methyl-N-(6-(tetrahydrofuran-3-yl)thiazolo[4,5-b]pyridin-2-yl)-[4,4′-bipyridine]-3-carboxamide] |  | 
1 to 15 | > 2 | > 10 | COc1cnc(Cl)cc1-c1cc(C)ncc1C(=O)Nc1nn2cc(C(=O)N[C@H]3CCOC3)nc2s1 [Example 291, (S)-2-(2′-chloro-5′-methoxy-6-methyl-[4,4′-bipyridine]-3-carboxamido)-N-(tetrahydrofuran-3-yl)imidazo[2,1-b][1,3,4]thiadiazole-6-carboxamide] |  | 
1 to 15 | > 2 | > 10 | COc1cnc(Cl)cc1-c1cc(C)ncc1C(=O)Nc1nn2cc(C(=O)N[C@H]3C[C@@H](O)C3)nc2s1 [Example 308] |  | 
1 to 15 | 0.001 to 0.1 | > 10 | COc1cnc(Cl)cc1-c1cc(C)ncc1C(=O)Nc1nc2ncc(N3CCO[C@H]4CCC[C@H]43)nc2s1 [Example 397, 2′-chloro-N-(6-((4aR,7aS)-hexahydrocyclopenta[b][1,4]oxazin-4(4aH)-yl)thiazolo[4,5-b]pyrazin-2-yl)-5′-methoxy-6-methyl-[4,4′-bipyridine]-3-carboxamide] |  | 
1 to 15 | 0.1 to 0.25 | > 10 | COc1cnc(Cl)cc1-c1cc(C)ncc1C(=O)Nc1nc2ncc([C@@H]3CC[C@H](CO)C3)nc2s1 [Example 499, 2′-chloro-N-(6-((1R,3S)-3-(hydroxymethyl)cyclopentyl)thiazolo[4,5-b]pyrazin-2-yl)-5′-methoxy-6-methyl-[4,4′-bipyridine]-3-carboxamide] |  | 
1 to 15 | 0.001 to 0.1 | > 10 | COc1cnc(Cl)cc1-c1cc(C)ncc1C(=O)Nc1nc2ncc(N3CCC(CO)CC3)nc2s1 [Example 506, 2′-chloro-N-(6-(4-(hydroxymethyl)piperidin-1-yl)thiazolo[4,5-b]pyrazin-2-yl)-5′-methoxy-6-methyl-[4,4′-bipyridine]-3-carboxamide] |  | 
